Source: article PMC11087268, “A folate inhibitor exploits metabolic differences in Pseudomonas aeruginosa for narrow-spectrum targeting” (Nature Microbiology, 2024)

System: P. aeruginosa PA14
Assay: Growth of P. aeruginosa PA14 in TMI-supplemented media with fluorofolin
Assay type: cell-based, Pseudomonas aeruginosa

Q: With `Nc1nc(N)c2c(ccc3c2ccn3Cc2ccnc(F)c2)n1` [fluorofolin] as the compound, how does the “OD600 of P. Aeruginosa PA14” value (Fluorofolin + TMI, Time 491.133 min) read?
A: 0.01785

Q: What about the “OD600 of P. Aeruginosa PA14” value (Fluorofolin + TMI, Time 501.81 min) of the same compound?
A: 0.01825

Q: What about the “OD600 of P. Aeruginosa PA14” value (Fluorofolin + TMI, Time 512.487 min) of the same compound?
A: 0.0184

Q: And the “OD600 of P. Aeruginosa PA14” value (Fluorofolin + TMI, Time 523.163 min)?
A: 0.01965

Q: And the “OD600 of P. Aeruginosa PA14” value (Fluorofolin + TMI, Time 533.84 min)?
A: 0.0189

Q: And the “OD600 of P. Aeruginosa PA14” value (Fluorofolin + TMI, Time 544.517 min)?
A: 0.0184

Q: And the “OD600 of P. Aeruginosa PA14” value (Fluorofolin + TMI, Time 555.193 min)?
A: 0.01805

Q: And the “OD600 of P. Aeruginosa PA14” value (Fluorofolin + TMI, Time 565.87 min)?
A: 0.0187

Q: And the “OD600 of P. Aeruginosa PA14” value (Fluorofolin + TMI, Time 576.547 min)?
A: 0.01815

Q: And the “OD600 of P. Aeruginosa PA14” value (Fluorofolin, Time 0 min)?
A: -0.00105

Q: And the “OD600 of P. Aeruginosa PA14” value (Fluorofolin, Time 64.0617 min)?
A: 0.00425

Q: What about the “OD600 of P. Aeruginosa PA14” value (Fluorofolin, Time 74.7383 min) of the same compound?
A: 0.0047

Q: What about the “OD600 of P. Aeruginosa PA14” value (Fluorofolin, Time 85.415 min) of the same compound?
A: 0.00495

Q: And the “OD600 of P. Aeruginosa PA14” value (Fluorofolin, Time 96.0917 min)?
A: 0.00565

Q: What about the “OD600 of P. Aeruginosa PA14” value (Fluorofolin, Time 106.768 min) of the same compound?
A: 0.006

Q: What about the “OD600 of P. Aeruginosa PA14” value (Fluorofolin, Time 117.445 min) of the same compound?
A: 0.0073

Q: What about the “OD600 of P. Aeruginosa PA14” value (Fluorofolin, Time 128.123 min) of the same compound?
A: 0.0085

Q: What about the “OD600 of P. Aeruginosa PA14” value (Fluorofolin, Time 138.8 min) of the same compound?
A: 0.00865

Q: And the “OD600 of P. Aeruginosa PA14” value (Fluorofolin, Time 149.477 min)?
A: 0.0096

Q: And the “OD600 of P. Aeruginosa PA14” value (Fluorofolin, Time 160.153 min)?
A: 0.01045

Q: What about the “OD600 of P. Aeruginosa PA14” value (Fluorofolin, Time 170.83 min) of the same compound?
A: 0.01095

Q: And the “OD600 of P. Aeruginosa PA14” value (Fluorofolin, Time 181.507 min)?
A: 0.01175

Q: What about the “OD600 of P. Aeruginosa PA14” value (Fluorofolin, Time 192.183 min) of the same compound?
A: 0.0127

Q: What about the “OD600 of P. Aeruginosa PA14” value (Fluorofolin, Time 202.86 min) of the same compound?
A: 0.0136

Q: What about the “OD600 of P. Aeruginosa PA14” value (Fluorofolin, Time 213.537 min) of the same compound?
A: 0.01395

Q: And the “OD600 of P. Aeruginosa PA14” value (Fluorofolin, Time 224.213 min)?
A: 0.01515

Q: What about the “OD600 of P. Aeruginosa PA14” value (Fluorofolin, Time 234.89 min) of the same compound?
A: 0.01575

Q: And the “OD600 of P. Aeruginosa PA14” value (Fluorofolin, Time 245.567 min)?
A: 0.0166

Q: What about the “OD600 of P. Aeruginosa PA14” value (Fluorofolin, Time 256.243 min) of the same compound?
A: 0.0165

Q: And the “OD600 of P. Aeruginosa PA14” value (Fluorofolin, Time 266.922 min)?
A: 0.01705

Q: What about the “OD600 of P. Aeruginosa PA14” value (Fluorofolin, Time 277.598 min) of the same compound?
A: 0.01815

Q: What about the “OD600 of P. Aeruginosa PA14” value (Fluorofolin, Time 288.275 min) of the same compound?
A: 0.01805

Q: And the “OD600 of P. Aeruginosa PA14” value (Fluorofolin, Time 298.952 min)?
A: 0.0199

Q: What about the “OD600 of P. Aeruginosa PA14” value (Fluorofolin, Time 309.628 min) of the same compound?
A: 0.0191

Q: And the “OD600 of P. Aeruginosa PA14” value (Fluorofolin, Time 320.305 min)?
A: 0.0205

Q: And the “OD600 of P. Aeruginosa PA14” value (Fluorofolin, Time 330.982 min)?
A: 0.01975

Q: What about the “OD600 of P. Aeruginosa PA14” value (Fluorofolin, Time 341.658 min) of the same compound?
A: 0.0208

Q: What about the “OD600 of P. Aeruginosa PA14” value (Fluorofolin, Time 352.335 min) of the same compound?
A: 0.0206

Q: What about the “OD600 of P. Aeruginosa PA14” value (Fluorofolin, Time 363.012 min) of the same compound?
A: 0.02055

Q: And the “OD600 of P. Aeruginosa PA14” value (Fluorofolin, Time 373.688 min)?
A: 0.0208

Q: And the “OD600 of P. Aeruginosa PA14” value (Fluorofolin, Time 384.365 min)?
A: 0.02105

Q: What about the “OD600 of P. Aeruginosa PA14” value (Fluorofolin, Time 395.042 min) of the same compound?
A: 0.02085

Q: And the “OD600 of P. Aeruginosa PA14” value (Fluorofolin, Time 405.718 min)?
A: 0.02185

Q: And the “OD600 of P. Aeruginosa PA14” value (Fluorofolin, Time 416.395 min)?
A: 0.02155

Q: What about the “OD600 of P. Aeruginosa PA14” value (Fluorofolin, Time 427.072 min) of the same compound?
A: 0.02275

Q: What about the “OD600 of P. Aeruginosa PA14” value (Fluorofolin, Time 437.748 min) of the same compound?
A: 0.02165

Q: And the “OD600 of P. Aeruginosa PA14” value (Fluorofolin, Time 448.425 min)?
A: 0.0225

Q: What about the “OD600 of P. Aeruginosa PA14” value (Fluorofolin, Time 459.102 min) of the same compound?
A: 0.0221

Q: And the “OD600 of P. Aeruginosa PA14” value (Fluorofolin, Time 469.78 min)?
A: 0.0226

Q: What about the “OD600 of P. Aeruginosa PA14” value (Fluorofolin, Time 480.457 min) of the same compound?
A: 0.02355

Q: And the “OD600 of P. Aeruginosa PA14” value (Fluorofolin, Time 491.133 min)?
A: 0.02265

Q: And the “OD600 of P. Aeruginosa PA14” value (Fluorofolin, Time 501.81 min)?
A: 0.02275

Q: What about the “OD600 of P. Aeruginosa PA14” value (Fluorofolin, Time 512.487 min) of the same compound?
A: 0.023

Q: And the “OD600 of P. Aeruginosa PA14” value (Fluorofolin, Time 523.163 min)?
A: 0.02375

Q: And the “OD600 of P. Aeruginosa PA14” value (Fluorofolin, Time 533.84 min)?
A: 0.02255

Q: And the “OD600 of P. Aeruginosa PA14” value (Fluorofolin, Time 544.517 min)?
A: 0.02295

Q: And the “OD600 of P. Aeruginosa PA14” value (Fluorofolin, Time 555.193 min)?
A: 0.0233

Q: What about the “OD600 of P. Aeruginosa PA14” value (Fluorofolin, Time 565.87 min) of the same compound?
A: 0.02345

Q: What about the “OD600 of P. Aeruginosa PA14” value (Fluorofolin, Time 576.547 min) of the same compound?
A: 0.0235

Q: And the “rescue of growth inhibition by TMI supplementation” value (P. aeruginosa PA14, 0.3 mM TMI, fluorofolin 2× MIC)?
A: unable to rescue
